Results published in patent US10364226B2, “Pyridazinone compounds and uses thereof” (priority 2013, dated 2019).

How the values were obtained:
[1] = test system: Influenza strain A549 A/WSN/33 (H1N1); test: Influenza Antiviral Assay; assay type: cell-based, Influenza A virus; details: Influenza A virus, A549, 20 h, neuraminidase fluorescence readout, read-out: % Inhibition
[2] = target: EN PA (Influenza A virus, UniProt P15659); test: EN PA FRET Inhibition Assay; assay type: biochemical; details: read-out: Potency

## CNC(=O)c1nn(CC2(n3ccc4cc(OC)cnc43)CCCC2)cc(O)c1=O [Compound 886]
[1]
  EC50: < 20 µM
[2]
  IC50: < 100 nM

## CNC(=O)c1nn(CC2(n3cc(Cl)c4cc(Cl)cnc43)CCCC2)cc(O)c1=O [Compound 887]
[1]
  EC50: < 20 µM
[2]
  IC50: < 100 nM

## CNC(=O)c1nn(CC2(c3cc(C)c4cccnc4c3)CCCC2)cc(O)c1=O [Compound 888]
[1]
  EC50: < 20 µM
[2]
  IC50: < 100 nM

## CNC(=O)c1nn(CC2(c3cc(C)cc4ncccc34)CCCC2)cc(O)c1=O [Compound 889]
[1]
  EC50: < 20 µM
[2]
  IC50: < 100 nM

## CNC(=O)c1nn(CC2(c3ccc4cc(C)cnc4c3)CCCC2)cc(O)c1=O [Compound 890]
[1]
  EC50: < 20 µM
[2]
  IC50: < 100 nM

## CNC(=O)c1nn(CC2(n3c4c(c5ccccc53)CCC4)CCCC2)cc(O)c1=O [Compound 891]
[1]
  EC50: < 20 µM
[2]
  IC50: < 100 nM

## CNC(=O)c1nn(CC2(n3cc(OC)c4cccnc43)CCCC2)cc(O)c1=O [Compound 892]
[1]
  EC50: < 20 µM
[2]
  IC50: < 100 nM

## CNC(=O)c1nn(CC2(c3cc4ccccc4cc3Cl)CCCC2)cc(O)c1=O [Compound 893]
[1]
  EC50: < 20 µM
[2]
  IC50: < 100 nM

## CNC(=O)c1nn(CC2(n3cc(C(C)=O)c4cc(C)cnc43)CCCC2)cc(O)c1=O [Compound 894]
[1]
  EC50: < 20 µM
[2]
  IC50: < 100 nM

## O=C1NCCCCCOc2cccc(c2)C2(CCCC2)Cn2cc(O)c(=O)c1n2 [Compound 895]
[1]
  EC50: < 20 µM
[2]
  IC50: < 100 nM

## CNC(=O)c1nn(CC2(n3c4ccccc4c4ccccc43)CCCC2)cc(O)c1=O [Compound 896]
[1]
  EC50: < 20 µM
[2]
  IC50: < 100 nM

## CNC(=O)c1nn(CC2(c3ccc4c(C)cccc4c3)CCCC2)cc(O)c1=O [Compound 897]
[1]
  EC50: < 20 µM
[2]
  IC50: < 100 nM

## CNC(=O)c1nn(CC2(n3cc(C)c4cc(Cl)ccc43)CCCC2)cc(O)c1=O [Compound 898]
[1]
  EC50: < 20 µM
[2]
  IC50: < 100 nM

## CNC(=O)c1nn(CC2(n3cc(Cl)c4cc(Cl)ccc43)CCCC2)cc(O)c1=O [Compound 899]
[1]
  EC50: < 20 µM
[2]
  IC50: < 100 nM
